Assays:
[1] = molecular target: T1, Alpha-1B adrenergic receptor (Rattus norvegicus) (UniProt P15823); assay: Antagonist activity at adrenergic alpha 1B receptor in rat spleen; format: functional, tissue-based
T1 sequence (whole entry): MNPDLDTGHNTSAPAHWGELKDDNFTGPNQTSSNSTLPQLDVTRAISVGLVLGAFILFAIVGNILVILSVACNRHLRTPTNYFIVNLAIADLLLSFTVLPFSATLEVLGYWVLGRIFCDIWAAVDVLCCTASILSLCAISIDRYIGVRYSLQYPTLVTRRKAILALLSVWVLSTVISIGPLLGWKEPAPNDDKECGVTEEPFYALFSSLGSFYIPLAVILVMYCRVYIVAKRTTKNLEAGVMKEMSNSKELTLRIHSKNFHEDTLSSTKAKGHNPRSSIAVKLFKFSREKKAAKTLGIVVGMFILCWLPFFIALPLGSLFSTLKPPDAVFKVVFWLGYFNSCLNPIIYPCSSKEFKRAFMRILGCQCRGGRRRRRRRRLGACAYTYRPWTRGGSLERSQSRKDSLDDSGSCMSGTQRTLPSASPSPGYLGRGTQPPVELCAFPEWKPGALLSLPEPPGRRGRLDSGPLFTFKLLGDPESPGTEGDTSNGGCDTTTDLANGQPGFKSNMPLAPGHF

[2] = molecular target: T2, Alpha-1D adrenergic receptor (Rattus norvegicus) (UniProt P23944); assay: Antagonist activity at adrenergic alpha 1D receptor in rat thoracic aorta; format: functional, tissue-based
T2 sequence (whole entry): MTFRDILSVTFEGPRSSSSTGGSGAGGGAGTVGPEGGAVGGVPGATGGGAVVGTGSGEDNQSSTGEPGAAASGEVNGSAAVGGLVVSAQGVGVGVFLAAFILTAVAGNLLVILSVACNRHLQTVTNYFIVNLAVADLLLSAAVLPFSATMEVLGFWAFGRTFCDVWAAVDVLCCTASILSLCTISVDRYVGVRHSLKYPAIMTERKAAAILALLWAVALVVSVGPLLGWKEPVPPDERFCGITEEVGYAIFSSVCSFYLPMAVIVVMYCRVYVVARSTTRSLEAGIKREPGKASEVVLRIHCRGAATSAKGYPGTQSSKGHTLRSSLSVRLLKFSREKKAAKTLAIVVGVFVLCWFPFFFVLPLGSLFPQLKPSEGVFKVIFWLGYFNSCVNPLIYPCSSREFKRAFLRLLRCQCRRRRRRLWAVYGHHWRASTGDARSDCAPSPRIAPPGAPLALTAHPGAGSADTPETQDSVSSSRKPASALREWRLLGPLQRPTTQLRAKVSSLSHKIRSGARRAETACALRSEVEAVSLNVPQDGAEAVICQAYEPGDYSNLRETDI

[3] = molecular target: T3, Alpha-1A adrenergic receptor (Homo sapiens, UniProt P35348); assay: Displacement of [125I]BE2254 from human cloned adrenergic alpha 1A receptor expressed in HEK293 cells; format: cell-based
T3 sequence (P35348 whole entry): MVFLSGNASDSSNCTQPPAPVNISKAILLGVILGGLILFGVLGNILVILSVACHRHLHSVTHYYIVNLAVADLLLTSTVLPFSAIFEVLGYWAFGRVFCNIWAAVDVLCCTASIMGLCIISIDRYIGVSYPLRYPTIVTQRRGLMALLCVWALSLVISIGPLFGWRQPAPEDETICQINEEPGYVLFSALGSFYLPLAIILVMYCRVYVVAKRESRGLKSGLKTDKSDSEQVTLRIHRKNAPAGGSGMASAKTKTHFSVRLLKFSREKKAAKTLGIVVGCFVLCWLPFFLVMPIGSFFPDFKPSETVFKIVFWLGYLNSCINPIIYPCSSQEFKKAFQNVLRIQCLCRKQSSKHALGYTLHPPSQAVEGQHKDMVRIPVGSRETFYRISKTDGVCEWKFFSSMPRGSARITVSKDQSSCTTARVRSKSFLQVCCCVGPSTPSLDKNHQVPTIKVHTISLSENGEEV

[4] = molecular target: T4, Alpha-1A adrenergic receptor (Rattus norvegicus) (UniProt P43140); assay: Antagonist activity at adrenergic alpha 1A receptor in rat prostatic vas deferens; format: functional, tissue-based
T4 sequence (whole entry): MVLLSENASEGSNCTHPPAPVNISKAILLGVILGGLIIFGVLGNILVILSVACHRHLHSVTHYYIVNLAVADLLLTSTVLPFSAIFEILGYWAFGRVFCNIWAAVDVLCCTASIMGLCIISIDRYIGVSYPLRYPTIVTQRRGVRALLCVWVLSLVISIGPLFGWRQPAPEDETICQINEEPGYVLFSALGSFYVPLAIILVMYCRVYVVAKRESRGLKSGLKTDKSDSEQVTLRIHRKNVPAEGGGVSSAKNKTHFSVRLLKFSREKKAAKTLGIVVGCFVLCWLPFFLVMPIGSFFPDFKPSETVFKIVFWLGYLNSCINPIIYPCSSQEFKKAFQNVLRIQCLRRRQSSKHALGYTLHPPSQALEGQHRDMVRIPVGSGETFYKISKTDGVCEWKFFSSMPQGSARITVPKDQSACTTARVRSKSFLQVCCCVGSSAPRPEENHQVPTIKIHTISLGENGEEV

[5] = molecular target: T5, Alpha-1B adrenergic receptor (Homo sapiens, UniProt P35368); assay: Displacement of [125I]BE2254 from human cloned adrenergic alpha 1B receptor expressed in HEK293 cells; format: cell-based
T5 sequence (P35368 whole entry): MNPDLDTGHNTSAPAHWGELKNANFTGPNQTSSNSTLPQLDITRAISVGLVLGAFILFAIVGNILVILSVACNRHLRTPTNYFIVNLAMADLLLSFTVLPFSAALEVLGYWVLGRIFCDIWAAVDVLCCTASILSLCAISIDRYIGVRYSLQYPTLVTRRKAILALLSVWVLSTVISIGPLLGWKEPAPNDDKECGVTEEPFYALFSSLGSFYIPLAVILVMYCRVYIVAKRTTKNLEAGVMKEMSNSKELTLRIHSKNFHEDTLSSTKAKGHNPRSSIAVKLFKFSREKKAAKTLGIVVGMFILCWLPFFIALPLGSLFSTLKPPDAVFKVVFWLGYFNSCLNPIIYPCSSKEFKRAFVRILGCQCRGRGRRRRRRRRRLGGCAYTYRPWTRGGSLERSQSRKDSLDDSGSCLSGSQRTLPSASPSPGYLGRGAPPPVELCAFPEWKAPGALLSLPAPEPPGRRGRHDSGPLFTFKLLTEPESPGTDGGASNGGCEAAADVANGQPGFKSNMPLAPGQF

[6] = molecular target: T6, Alpha-1D adrenergic receptor (Homo sapiens, UniProt P25100); assay: Displacement of [125I]BE2254 from human cloned adrenergic alpha 1D receptor expressed in HEK293 cells; format: cell-based; conditions: for Log Ki: hek293
T6 sequence (P25100 whole entry): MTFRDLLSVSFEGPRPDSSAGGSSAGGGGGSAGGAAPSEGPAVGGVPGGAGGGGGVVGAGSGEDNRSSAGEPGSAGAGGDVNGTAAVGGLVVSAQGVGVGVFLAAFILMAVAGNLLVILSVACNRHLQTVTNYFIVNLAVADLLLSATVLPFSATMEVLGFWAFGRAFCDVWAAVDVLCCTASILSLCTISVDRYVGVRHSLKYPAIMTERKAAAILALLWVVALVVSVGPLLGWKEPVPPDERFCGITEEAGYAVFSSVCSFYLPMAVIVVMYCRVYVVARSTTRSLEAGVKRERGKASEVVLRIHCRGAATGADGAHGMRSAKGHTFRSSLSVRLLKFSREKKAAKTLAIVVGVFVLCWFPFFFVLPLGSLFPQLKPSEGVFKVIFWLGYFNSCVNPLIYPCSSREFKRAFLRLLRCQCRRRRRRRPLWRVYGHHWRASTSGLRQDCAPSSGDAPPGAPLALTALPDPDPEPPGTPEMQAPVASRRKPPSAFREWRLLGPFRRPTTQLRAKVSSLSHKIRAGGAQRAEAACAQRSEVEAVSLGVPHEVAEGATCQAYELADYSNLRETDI

| pKb [1] | pKb [2] | Ki [3] [nM] | pKb [4] | Ki [5] [nM] | Ki [6] [nM] | Log Ki ([3]; hek293) | Log Ki [6] | SMILES |
| --- | --- | --- | --- | --- | --- | --- | --- | --- |
| 8.91 | 7.57 | 3.47 | 7.52 | 17.4 | 0.832 |  |  | COc1ccc(Cl)cc1N1CCN(CCn2c(C)nc3c(sc4ccccc43)c2=O)CC1 |
| 9.73 | 9.24 |  | 8.53 |  |  | -8.52 | -9.39 | COc1ccccc1N1CCN(CCn2c(C)nc3c4ccccc4nc-3c2O)CC1 |
|  |  | 8.32 |  | 10.7 | 1.55 |  |  | COc1ccc(Cl)cc1N1CCN(CCn2c(=O)[nH]c3c([nH]c4ccccc43)c2=O)CC1 |
| 8.67 | 8.71 | 0.288 | 8.46 |  |  |  | -9.44 | COc1ccccc1N1CCN(CCn2c(=O)[nH]c3c([nH]c4ccccc43)c2=O)CC1 |
|  |  | 182 |  | 603 | 437 |  |  | Cn1c(=O)n(CCN2CCN(c3ccc(Cl)c(Cl)c3)CC2)c(=O)c2c1c1ccccc1n2C |
|  |  | 4270 |  | 19100 | 309 |  |  | O=c1[nH]c2c(sc3ccccc32)c(=O)n1CCN1CCN(c2ccc(Cl)c(Cl)c2)CC1 |
| 7.63 | 8.98 | 1.48 | 8.65 | 17.4 | 0.398 |  |  | COc1ccccc1N1CCN(CCn2c(C)nc3c(sc4ccccc43)c2=O)CC1 |
| 8.68 | 8.39 | 1.32 | 7.6 | 4.47 | 0.166 |  |  | COc1ccc(Cl)cc1N1CCN(CCn2c(C)nc3c([nH]c4ccccc43)c2=O)CC1 |
|  |  | 30.2 |  | 83.2 | 7.41 |  |  | Cc1nc2c([nH]c3ccccc32)c(=O)n1CCN1CCN(c2ccc(Cl)c(Cl)c2)CC1 |
| 8.44 | 8.89 | 3.31 | 8.61 | 8.91 | 1.26 |  |  | COc1ccccc1N1CCN(CCn2c(=O)[nH]c3c(sc4ccccc43)c2=O)CC1 |
|  |  | 53.7 |  | 91.2 | 13.5 |  |  | COc1ccc(Cl)cc1N1CCN(CCn2c(=O)[nH]c3c(sc4ccccc43)c2=O)CC1 |

Reference: ChEMBL document CHEMBL1146173, “New pyrimido[5,4-b]indoles and [1]benzothieno[3,2-d]pyrimidines: high affinity ligands for the alpha(1)-adrenoceptor subtypes” (Bioorg Med Chem Lett, 2006)
